# Measurements from patent US3992446A, “Substituted aminochlorobenzylamino guanidine compounds” (American Cyanamid Company, priority 1975, dated 1976).
# Counter-ions that a name gives are not always drawn. Like-named read-outs stand apart in the source and are kept apart here.
# What was measured:
# Format in all cases: in vivo
# [1] = test system: Eimeria tenella; assay: anticoccidial activity against Eimeria tenella in inoculated Peterson Cross Cockerels, medicated diet, survival; settings: 168 h; for responders at 20 µg/mL: 20 parts per million in diet; for responders at 15 µg/mL: 15 parts per million in diet; for responders at 120 µg/mL: 120 parts per million in diet
# Text: (§1) For example, these compounds have anticoccidial activity against Eimeria tenella as shown by the following test: The animals were Peterson Cross Cockerels, 7 days old and of approximately equal size and weight. These cockerels were divided into groups and the groups were placed in separate cages with wire floors. Medicated and control diets were then presented to the groups of birds 2 days before inoculation while they were still in uncontaminated quarters. During the entire period of the tests, the birds ate and drank ad libitum. Control groups were maintained on a standard unmedicated commercial type chicken diet. Test groups were maintained on the same standard diet in which a measured concentration of test compound had been incorporated homogeneously. The cockerels were inoculated once orally with sporulated oocysts of Eimeria tenella. The number of oocysts inoculated directly into the crops of all cockerels in the tests was sufficient to produce high mortality in the untreated controls. […] Seven days following inoculation the tests were terminated and the mortality rate was recorded for each group. […] The tests represent very severe laboratory challenges, and lower concentrations than those shown would be effective under practical field conditions.
# [2] = test system: coccidia; assay: anti-coccidial activity, comparison with prior art compounds of Lieber et al.
# [3] = test system: E. brunetti; assay: anticoccidial activity against E. brunetti in chickens (survival, weight gain); settings: for % Survival / Weight gain: brunetti; for Weight gain: 7 days after inoculation
# Text: as §1
# (§2) The compounds of the present invention have high activity against other coccidial species in chickens. […] Methods used were essentially identical with those previously cited with appropriate modifications. Weight gains were determined 7 days after single experimental inoculations with the designated species of coccidia.
# [4] = test system: E. acervulina; assay: anticoccidial activity against E. acervulina in chickens (survival, weight gain)
# Text: as §1, §2
# [5] = test system: E. mivati; assay: anticoccidial activity against E. mivati in chickens (survival, weight gain); settings: for % Survival / Weight gain: mivati; for Weight gain: 7 days after inoculation
# Text: as §1, §2
# [6] = test system: E. maxima; assay: anticoccidial activity against E. maxima in chickens (survival, weight gain); settings: for % Survival / Weight gain: maxima; for Weight gain: 7 days after inoculation
# Text: as §1, §2
# [7] = test system: Eimeria necatrix; assay: anticoccidial activity against Eimeria necatrix in chickens (survival, weight gain); settings: for % Survival / Weight gain: necatrix; for Weight gain: 7 days after inoculation
# Text: as §1, §2
# [8] = 30 parts per million in diet, 7 days after inoculation, read-out: % Survival
# [9] = 10 parts per million in diet, 7 days after inoculation, read-out: % Survival
structure (smiles),measurement,setting,value
"N=C(NN=Cc1ccc(F)cc1)NN=Cc1ccc(F)cc1 [1,3-Bis(4-fluorobenzylideneamino)guanidine Nitrate]",responders at 93 µg/mL,[1]; read-out: % Survival,80%
"O=Cc1ccccc1O [11) salicylaldehyde, reference compound]",Activity (anti-coccidial),[2]; dosage 125 parts per million,inactive
"N=C(NN=Cc1ccc(Cl)c(Cl)c1)NN=Cc1ccc(Cl)c(Cl)c1 [1,3-Bis(3,4-dichlorobenzylideneamino)guanidine Nitrate]",responders at 60 µg/mL,[1]; read-out: % Survival,100%
"O=Cc1ccc2c(c1)OCO2 [9) piperonal, reference compound]",Activity (anti-coccidial),[2]; dosage 125 parts per million,inactive
"N=C(NN=Cc1ccc(Cl)cc1)NN=Cc1ccc(Cl)cc1 [1,3-Bis(4-chlorobenzylideneamino)guanidine]",protection from poor weight gains due to E. brunetti,[3]; treated chickens,completely protected
same,protection from poor weight gains due to E. acervulina,[4]; treated chickens,completely protected
same,protection from poor weight gains due to E. mivati,[5]; treated chickens,completely protected
same,protection from poor weight gains due to E. maxima,[6]; treated chickens,completely protected
same,protection from mortality due to Eimeria necatrix,[7]; treated chickens,completely protected
"N=C(NN=Cc1ccc(Cl)cc1)NN=Cc1ccc(Cl)cc1 [1,3-bis(4-chlorobenzylideneamino)guanidine methosulfate]",responders at 20 µg/mL,[1]; 7 days after inoculation,59%
same,responders at 40 µg/mL,"[1]; 40 parts per million in diet, 7 days after inoculation",90%
same,responders at 60 µg/mL,"[1]; 60 parts per million in diet, 7 days after inoculation, read-out: % Survival",98%
same,Activity (anti-coccidial),[2]; dosage 20 parts per million,active
same,% Survival,[7]; 15 ppm in diet,100%
same,Weight gain,[7]; 15 ppm in diet,80 % control
same,% Survival,[7]; 30 ppm in diet,100%
same,Weight gain,[7]; 30 ppm in diet,103 % control
N=C(NN=Cc1ccc(Cl)cc1)NNCc1ccc(Cl)cc1 [1-(4-Chlorobenzylamino)-3-(4-chlorobenzylideneamino)guanidine],responders at 15 µg/mL,[1]; 7 days after inoculation,90%
same,responders at 30 µg/mL,[1]; [8],100%
"N=C(NN=Cc1ccc(Br)cc1)NN=Cc1ccc(Br)cc1.O=[N+]([O-])O [1,3-Bis(4-bromobenzylideneamino)guanidine Nitrate]",responders at 17 µg/mL,[1]; read-out: % Survival,80%
same,responders at 35 µg/mL,[1]; read-out: % Survival,95%
same,Activity (anti-coccidial),[2]; dosage 17 parts per million,active
"CC(=O)N=C(NN=Cc1ccc(Cl)cc1)NN=Cc1ccc(Cl)cc1 [2-acetyl-1,3-bis(4-chlorobenzylideneamino)guanidine]",responders at 5 µg/mL,"[1]; 5 parts per million in diet, 7 days after inoculation, read-out: % Survival",67%
same,responders at 10 µg/mL,[1]; [9],95%
same,responders at 30 µg/mL,[1]; [8],100%
"N#Cc1ccc(C=NNC(=N)NN=Cc2ccc(C#N)cc2)cc1 [1,3-Bis(4-cyanobenzylideneamino)guanidine Nitrate]",responders at 30 µg/mL,[1]; read-out: % Survival,80%
same,responders at 60 µg/mL,[1]; read-out: % Survival,100%
"CN(N=Cc1ccc(Cl)cc1)C(=N)N(C)N=Cc1ccc(Cl)cc1 [1,3-Bis(4-chlorobenzylideneamino)-1,3-dimethylguanidine hydrobromide]",responders at 30 µg/mL,[1]; [8],100%
same,responders at 120 µg/mL,[1]; 7 days after inoculation,100%
"N=C(NN=Cc1ccc(C(F)(F)F)cc1)NN=Cc1ccc(C(F)(F)F)cc1 [1,3-Bis(4-trifluoromethylbenzylideneamino)guanidine hydrochloride]",responders at 120 µg/mL,[1]; 7 days after inoculation,100%
"Cl.N=C(NN=Cc1ccc(I)cc1)NN=Cc1ccc(I)cc1 [1,3-Bis(4-iodobenzylideneamino)guanidine Hydrochloride]",responders at 30 µg/mL,[1]; [8],55%
same,Activity (anti-coccidial),[2]; dosage 30 parts per million,active
"CC(=O)c1ccccc1 [14) acetophenone, reference compound]",Activity (anti-coccidial),[2]; dosage 250 parts per million,inactive
"N=C(NNCc1ccc(Cl)cc1)NNCc1ccc(Cl)cc1 [1,3-bis(4-chlorobenzylamino)guanidine]",responders at 10 µg/mL,[1]; [9],90%
same,responders at 15 µg/mL,[1]; 7 days after inoculation,90%
same,responders at 20 µg/mL,[1]; 7 days after inoculation,100%
"Cl.N=C(NN=Cc1ccc(Cl)cc1)NN=Cc1ccc(Cl)cc1 [1,3-bis(4-chlorobenzylideneamino)-guanidine hydrochloride]",% Survival,[3]; 15 ppm in diet,100%
same,Weight gain,[3]; 15 ppm in diet,100 % control
same,% Survival,[3]; 30 ppm in diet,100%
same,Weight gain,[3]; 30 ppm in diet,95 % control
same,responders at 8.5 µg/mL,[1]; read-out: % Survival,45%
same,responders at 17 µg/mL,[1]; read-out: % Survival,75%
same,responders at 33 µg/mL,[1]; read-out: % Survival,100%
same,% Survival,[5]; 15 ppm in diet,100%
same,Weight gain,[5]; 15 ppm in diet,86 % control
same,% Survival,[5]; 30 ppm in diet,100%
same,Weight gain,[5]; 30 ppm in diet,91 % control
same,% Survival,[5]; 45 ppm in diet,100%
same,Weight gain,[5]; 45 ppm in diet,100 % control
same,% Survival,[6]; 15 ppm in diet,100%
same,Weight gain,[6]; 15 ppm in diet,101 % control
same,% Survival,[6]; 30 ppm in diet,100%
same,Weight gain,[6]; 30 ppm in diet,95 % control
same,% Survival,[6]; 45 ppm in diet,100%
same,Weight gain,[6]; 45 ppm in diet,100 % control
same,Activity (anti-coccidial),[2]; dosage 8.5 parts per million,active
"N=C(NN=Cc1ccc(OC(F)(F)F)cc1)NN=Cc1ccc(OC(F)(F)F)cc1 [1,3-bis(4-Trifluoromethoxybenzylideneamino)guanidine Hydrochloride]",responders at 5 µg/mL,[1]; read-out: % Survival,80%
same,responders at 10 µg/mL,[1]; read-out: % Survival,100%
"N=C(NN=Cc1ccc(Cl)cc1)NN=Cc1ccc(Cl)cc1.O=[N+]([O-])O [1,3-Bis(4-chlorobenzylideneamino)guanidine nitrate]",% Survival,"[4]; acervulina, 45 ppm in diet",100%
same,Weight gain,"[4]; acervulina, 45 ppm in diet, 7 days after inoculation",99 % control
same,responders at 18 µg/mL,[1]; read-out: % Survival,77%
same,responders at 36 µg/mL,[1]; read-out: % Survival,96%
same,responders at 54 µg/mL,[1]; read-out: % Survival,100%
same,Activity (anti-coccidial),[2]; dosage 18 parts per million,active
"O=Cc1ccccc1O [12) salicylaldehyde, reference compound]",Activity (anti-coccidial),[2]; dosage 200 parts per million,inactive
